Measured values as given in ChEMBL document CHEMBL1201862, “PubChem BioAssay data set” (2004).
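Interpolation was linear, between the two tested concentrations surrounding the appropriate level; five concentrations were tested over 48 hours in 96-well plates. GI50 = concentration required for 50% inhibition of growth.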 Active and inactive are the calls of the source. Cut-off read from the data, not from the text of the source: active = GI50 up to about 1.1 µM and inactive = higher.

Columns and labels:
Experiment in all cases: NCI anticancer screen, dose series, 48 h
A498 = tested on: A498
CAKI-1 = tested on: CAKI-1
HL-60 = tested on: HL-60
HOP-18 = tested on: HOP-18
HOP-92 = tested on: HOP-92
M19-MEL = tested on: M19-MEL
MCF7 = tested on: MCF7
Malme-3M = tested on: Malme-3M
OVCAR-4 = tested on: OVCAR-4
SF-539 = tested on: SF-539
SK-MEL-2 = tested on: SK-MEL-2
SNB-75 = tested on: SNB-75
U-251 = tested on: U-251
ACHN = tested on: ACHN
TK-10 = tested on: TK-10

SMILES	GI50 (A498)	GI50 (CAKI-1)	GI50 (HL-60)	GI50 (HOP-18)	GI50 (HOP-92)	GI50 (M19-MEL)	GI50 (MCF7)	GI50 (Malme-3M)	GI50 (OVCAR-4)	GI50 (SF-539)	GI50 (SK-MEL-2)	GI50 (SNB-75)	GI50 (U-251)	GI50 (ACHN)	GI50 (TK-10)
C/C=C/C1=CC(=O)C(O)C1O (stereo unspecified)	8.28 µM (inactive)	14.5 µM (inactive)	15.1 µM (inactive)	12.4 µM (inactive)	27.2 µM (inactive)	26.7 µM (inactive)	30.8 µM (inactive)	27.1 µM (inactive)	37.1 µM (inactive)	23.9 µM (inactive)	36.5 µM (inactive)	23.6 µM (inactive)	44.8 µM (inactive)	–	–
O=C(Nc1c(C(=O)NC2CCCCC2)[nH]c(=O)[nH]c1=O)c1ccc(Cl)cc1	–	> 100 µM (inactive)	> 100 µM (inactive)	> 100 µM (inactive)	> 100 µM (inactive)	> 100 µM (inactive)	–	> 100 µM (inactive)	> 100 µM (inactive)	> 100 µM (inactive)	–	22 µM (inactive)	–	> 100 µM (inactive)	> 100 µM (inactive)
Cc1csc(/N=C(/NCCN2CCOCC2)Nc2nc(C)cs2)n1	> 57.9 µM (inactive)	> 76.2 µM (inactive)	60.7 µM (inactive)	> 100 µM (inactive)	> 88.9 µM (inactive)	> 100 µM (inactive)	> 84.5 µM (inactive)	> 100 µM (inactive)	> 100 µM (inactive)	> 100 µM (inactive)	> 100 µM (inactive)	> 63.2 µM (inactive)	> 100 µM (inactive)	–	–
COC(=O)C(C/C=C(\C)c1ccc(Cl)cc1)C(C)=O (stereo unspecified)	34.4 µM (inactive)	–	14.6 µM (inactive)	40.3 µM (inactive)	19.5 µM (inactive)	32.7 µM (inactive)	37.7 µM (inactive)	40.3 µM (inactive)	27.2 µM (inactive)	99.5 µM (inactive)	5.53 µM (inactive)	29.2 µM (inactive)	26.1 µM (inactive)	–	–
Cn1cc(NC(=O)[C@H]2CCC(N)=N2)cc1C(=O)NCCC(=N)N	–	–	> 100 µM (inactive)	> 100 µM (inactive)	> 100 µM (inactive)	–	–	> 100 µM (inactive)	–	> 100 µM (inactive)	> 100 µM (inactive)	> 100 µM (inactive)	> 100 µM (inactive)	> 100 µM (inactive)	> 100 µM (inactive)
C=CC(C)C1(CCCOCc2ccccc2)C(=S)N2CCC3(CC24CCCC14)OCCO3 (stereo unspecified)	5.01 µM (inactive)	> 100 µM (inactive)	1.9 µM (inactive)	> 100 µM (inactive)	–	25.6 µM (inactive)	–	47.5 µM (inactive)	9.46 µM (inactive)	–	12.2 µM (inactive)	0.0506 µM (active)	34.1 µM (inactive)	9.84 µM (inactive)	97.3 µM (inactive)
